Data on 8 molecules can be found in patent publication US4870097A, “Pharmaceutical use of derivatives of tryptophan” (priority 1984, dated 1989).

For experiment [1], the system named is analgesic activity of DALA. Briefly: Tail Flick test: increase in the analgesic activity of DALA (i.c.v.). It is filed as in vivo, rats. The following applies: b802: 0.001 g/kg. How it is done:
In order to check one of the possible mechanisms for the action of the compounds of the invention, that is, their possible inhibition of the enzymatic degradation of endogenous enkephalins, the following experiment was carried out:
A cannula was implanted in the right lateral ventricle of male rats having a weight of 150-200 g (groups of five animals were used) in order to allow the intracerebroventricular (i.c.v.) administration of drugs according to the method of Noble et al (Life Science 6, (1970) 281-291).
The animals were subsequently treated (i.c.v.) with 3 μg of D-ala-methionine-enkephalinamide (DALA) immediately after an injection (i.c.v.) of the compounds under study at the doses given in Table 4. Analgesia was tested for by the Tail Flick method already mentioned, at the times
(In general: Thermal pain tests record how soon the animal reacts.)

In experiment [2] the test system is analgesic activity of morphine. Briefly: Tail Flick Test: increase in the analgesic effect of morphine. It is filed as in vivo, rats. The following applies: for percentage variation in the latency of the pain sensation, 10' / percentage variation in the latency of the pain sensation, 20' / percentage variation in the latency of the pain sensation, 30' / percentage variation in the latency of the pain sensation, 45' / percentage variation in the latency of the pain sensation, 60' / percentage variation in the latency of the pain sensation, 90' / M(10'-90') average percentage variation: compound 10 mg/kg i.p. + morphine 2 mg/kg (row Morphine: alone); for percentage variation in the latency of the pain sensation, 10' / percentage variation in the latency of the pain sensation, 20' / percentage variation in the latency of the pain sensation, 30' / percentage variation in the latency of the pain sensation, 45' / percentage variation in the latency of the pain sensation, 60' / percentage variation in the latency of the pain sensation, 90': ± S.E.; for M(10'-90') average percentage variation: mean 10'-90'; for Potency ratio relative to morphine alone: rat, in vivo. In short, it runs like this: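 Male non-fasted rats, 150-200 g; heat source (75 °C) on tail, latency to tail movement timed, 8 s cut-off. Measured before and 10, 20, 30, 45, 60, 90 min after analgesic dosing; percentage variation per animal, averaged over groups of five.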

In experiment [3] the test system is tolerance induced by morphine. The experiment is described as follows: Antagonism to the development of tolerance to repeated administration of morphine HCl (tail flick). It is filed as in vivo, rats. As for the experimental part:
Several of the compounds of the invention were examined to determine any capacity to antagonise the development of tolerance induced by morphine. Groups of six male rats having a weight of about 200-250 were used.
At intervals of 24 hours from the first treatment (time 0), each animal (except for the control group treated with a physiological solution) received 3 mg/kg of morphine hydrochloride i.p. together with 3 mg/kg i.p. of the compounds indicated (with the exception of the group treated solely with morphine).
The determination of the threshold for the pain stimulus was effected at 15°, 30', 45' and 60' intervals from the treatment by the "tail flick" test.

The subject of experiment [4] is guinea pig gall bladder contracted with CCK-8. Briefly: Anti-CCK activity on guinea pig gall bladders in vitro. It is filed as biochemical. The following applies: CCK-8 10 ng/ml, concentration antagonising 50% of contracting effect. A digest of the protocol: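 Longitudinal gall bladder strips in Krebs at 32° C, gassed with O2/CO2 95:5, were contracted with CCK-8 at 10 ng/ml and contractions recorded isometrically via force transducer. ED50 in mcg/ml is the compound concentration antagonising 50% of CCK contraction, derived by regression over at least three experiments.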

Where [5] appears, read: days 0-7, 3 mg/kg + morphine (row Morphine: alone).

SMILES strings stand for the structures.

Consider `CCCN(CCC)C(=O)C(CCC(=O)O)NC(=O)c1ccccc1` (stereo not drawn) [proglumide, reference compound], for which the “potentiating action on the analgesic effect of DALA (in words)” value in experiment [1] is listed as “highly significant”.
Regarding `O=C(N[C@@H](Cc1c[nH]c2ccccc12)C(=O)O)OCc1ccc(F)cc1` [Compound 1, N-p-fluorocarbobenzoxy-L-tryptophan], in experiment [2], the “percentage variation in the latency of the pain sensation, 10'” value (“percentage variation in the latency … 10'” below) stood at 37.6 ± 12.9%; the “percentage variation in the latency of the pain sensation, 20'” value (shortened to “percentage variation in the latency … 20'”) turned out to be 89.2 ± 7.3%; the “percentage variation in the latency of the pain sensation, 30'” value (“percentage variation in the latency … 30'” for short) came to 96.4 ± 3.5%; the “percentage variation in the latency of the pain sensation, 45'” value (“percentage variation in the latency … 45'” below) was found to be 82.6 ± 12.5%. In addition, in experiment [2], the “percentage variation in the latency of the pain sensation, 60'” value (shortened to “percentage variation in the latency … 60'”) is 87.2 ± 7.8%; the “percentage variation in the latency of the pain sensation, 90'” value (“percentage variation in the latency … 90'” for short) stood at 40.6 ± 17.7%; the “M(10'-90') average percentage variation” value came out at 72.3%; the “Potency ratio relative to morphine alone” value was 2.43. Besides, the “percentage variation in the latency time, day 0” value in experiment [3] (day 0, 3 mg/kg i.p. + morphine HCl 3 mg/kg i.p. (row Morphine: alone)) was 44.25%. For the same molecule, the “percentage variation in the latency time, day 1” value in experiment [3] (day 1, 3 mg/kg i.p. + morphine HCl 3 mg/kg i.p. (row Morphine: alone)) is reported as 69.33%. The “percentage variation in the latency time, day 2” value in experiment [3] (day 2, 3 mg/kg i.p. + morphine HCl 3 mg/kg i.p. (row Morphine: alone)) amounted to 69.21%. For the same molecule, the “percentage variation in the latency time, day 3” value in experiment [3] (day 3, 3 mg/kg i.p. + morphine HCl 3 mg/kg i.p. (row Morphine: alone)) is on record as 54.03%. For the same molecule, in experiment [3] (day 4, 3 mg/kg i.p. + morphine HCl 3 mg/kg i.p. (row Morphine: alone)), the “percentage variation in the latency time, day 4” value was determined as 21.91%. For the same molecule, the “percentage variation in the latency time, day 5” value in experiment [3] (day 5, 3 mg/kg i.p. + morphine HCl 3 mg/kg i.p. (row Morphine: alone)) is on record as 33.35%. Besides, the “percentage variation in the latency time, day 6” value in experiment [3] (day 6, 3 mg/kg i.p. + morphine HCl 3 mg/kg i.p. (row Morphine: alone)) was 36.44%. Besides, the “percentage variation in the latency time, day 7” value in experiment [3] (day 7, 3 mg/kg i.p. + morphine HCl 3 mg/kg i.p. (row Morphine: alone)) came to 16.1%. Besides, in experiment [3] (setting [5]), the “Area subtended (1)” value is listed as 342.6 Effect-Day and the “regression line % Effect versus Day” value was “% Effect = - 5.97 Day + 63.96”. Further, in experiment [3] (days 0-7, 3 mg/kg + morphine, ratio to morphine alone), the “Area 1 / Area Morphine” value stood at 2.44. Further, the “Anti CCK-8 activity, ED50” value in experiment [4] was determined as 59.9 µg/mL.
Turning to `O=C(N[C@@H](Cc1c[nH]c2ccccc12)C(=O)O)c1ccc(Cl)cc1` [Compound 12], in experiment [2], the “percentage variation in the latency … 10'” value came to 42.2 ± 19.4%; the “percentage variation in the latency … 20'” value is listed as 50.5 ± 17.0%; the “percentage variation in the latency … 30'” value was determined as 69.7 ± 19.8%; the “percentage variation in the latency … 45'” value turned out to be 68.9 ± 13.4%. Further, in experiment [2], the “percentage variation in the latency … 60'” value is 32.7 ± 20.1%; the “percentage variation in the latency … 90'” value stood at 16.3 ± 7.4%; the “M(10'-90') average percentage variation” value is reported as 49.1%; the “Potency ratio relative to morphine alone” value is given as 1.65. Also, the “Anti CCK-8 activity, ED50” value in experiment [4] amounted to 206.0 µg/mL.
`CC(C)Cc1ccc(C(=O)N[C@@H](Cc2c[nH]c3ccccc23)C(=O)O)cc1` [Compound 24]: in experiment [2], the “percentage variation in the latency … 10'” value was 66.9 ± 14.8%; the “percentage variation in the latency … 20'” value is 61.9 ± 17.5%; the “percentage variation in the latency … 30'” value was found to be 84.4 ± 11.6%; the “percentage variation in the latency … 45'” value was determined as 69.1 ± 14.9%. In addition, in experiment [2], the “percentage variation in the latency … 60'” value was determined as 65.2 ± 11.4%; the “percentage variation in the latency … 90'” value was 32.7 ± 19.9%; the “M(10'-90') average percentage variation” value is given as 63.4%; the “Potency ratio relative to morphine alone” value amounted to 2.13. Further, the “Anti CCK-8 activity, ED50” value in experiment [4] stood at 327.7 µg/mL.
Take `Cc1ccc(COC(=O)N[C@@H](Cc2c[nH]c3ccccc23)C(=O)O)cc1` [Compound 8]: in experiment [2], the “percentage variation in the latency … 10'” value was 12.4 ± 4.9%; the “percentage variation in the latency … 20'” value is 38.4 ± 22.2%; the “percentage variation in the latency … 30'” value amounted to 56.5 ± 20.3%; the “percentage variation in the latency … 45'” value stood at 48.0 ± 26.1%. Further, in experiment [2], the “percentage variation in the latency … 60'” value worked out at 48.5 ± 21.5%; the “percentage variation in the latency … 90'” value turned out to be 54.4 ± 24.7%; the “M(10'-90') average percentage variation” value amounted to 43.0%; the “Potency ratio relative to morphine alone” value came to 1.44. Moreover, the “Anti CCK-8 activity, ED50” value in experiment [4] turned out to be 114.3 µg/mL.
As to `CCCCCCCCCc1ccc(C(=O)N[C@@H](Cc2c[nH]c3ccccc23)C(=O)O)cc1` [Compound 28], in experiment [2], the “percentage variation in the latency … 10'” value was 79.5 ± 12.7%; the “percentage variation in the latency … 20'” value is given as 100.0 ± 0.0%; the “percentage variation in the latency … 30'” value stood at 98.0 ± 2.0%; the “percentage variation in the latency … 45'” value came to 100.0 ± 0.0%. Moreover, in experiment [2], the “percentage variation in the latency … 60'” value was 82.2 ± 17.8%; the “percentage variation in the latency … 90'” value turned out to be 78.8 ± 11.4%; the “M(10'-90') average percentage variation” value worked out at 89.7%; the “Potency ratio relative to morphine alone” value amounted to 3.01. Besides, the “Anti CCK-8 activity, ED50” value in experiment [4] was determined as 18.9 µg/mL.
Turning to `Cc1ccc(C(=O)N[C@@H](Cc2c[nH]c3ccccc23)C(=O)O)cc1C` [Compound 29], in experiment [2], the “percentage variation in the latency … 10'” value came out at 54.7 ± 14.1%; the “percentage variation in the latency … 20'” value worked out at 62.6 ± 16.5%; the “percentage variation in the latency … 30'” value turned out to be 62.8 ± 17.5%; the “percentage variation in the latency … 45'” value is 65.9 ± 16.0%. In experiment [2], the “percentage variation in the latency … 60'” value was 51.4 ± 12.7%; the “percentage variation in the latency … 90'” value came out at 52.5 ± 15.7%; the “M(10'-90') average percentage variation” value was determined as 58.3%; the “Potency ratio relative to morphine alone” value is given as 1.96. For the same molecule, the “Anti CCK-8 activity, ED50” value in experiment [4] was “IN (inactive up to 400 mcg/ml)”.
Regarding `O=C(N[C@@H](Cc1c[nH]c2ccccc12)C(=O)O)OCc1ccc(C(F)(F)F)cc1` [Compound 7], in experiment [2], the “percentage variation in the latency … 10'” value was 38.3 ± 13.7%; the “percentage variation in the latency … 20'” value was found to be 34.4 ± 5.7%; the “percentage variation in the latency … 30'” value turned out to be 44.4 ± 14.8%; the “percentage variation in the latency … 45'” value worked out at 48.3 ± 14.6%. Also, in experiment [2], the “percentage variation in the latency … 60'” value came to 47.2 ± 16.9%; the “percentage variation in the latency … 90'” value was determined as 47.9 ± 15.4%; the “M(10'-90') average percentage variation” value is reported as 43.4%; the “Potency ratio relative to morphine alone” value is given as 1.45. The “Anti CCK-8 activity, ED50” value in experiment [4] turned out to be 108.7 µg/mL.
